Measurements taken from patent US10253039B2, “Inhibitors of bacterial DNA gyrase with efficacy against gram-negative bacteria” (priority 2014, dated 2019).
≈ marks a conversion by molar mass, not a printed value. Like-named read-outs stand apart in the source and are kept apart here.

Key:
Type in all cases: cell-based
E. coli BW25113 = experiment: MIC, microdilution in 96-well plates; settings: Escherichia coli, read-out: MIC
Outline: (§1)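 Determined via CLSI-guided microdilution: triplicate two-fold compound gradients, a DMSO vehicle column, and cultures seeded 1:10000 in LB from growing cells. Incubation lasted 16-18 hours at 37° C. under shaking, with MIC called as the lowest concentration lacking visible growth.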

Edwardsiella tarda = experiment: MIC, microdilution in 96-well plates
Outline: as §1

E. coli JW5503 (deltolC) = experiment: MIC, 20-strain panel; settings: Escherichia coli
Outline: as §1

Shigella flexneri = experiment: MIC, 20-strain panel
Outline: as §1

Streptococcus agalactiae = experiment: MIC, 20-strain panel
Outline: as §1

E. coli MG1655 = experiment: MIC, 20-strain panel; settings: Escherichia coli, read-out: MIC
Outline: as §1

[1] = system: Staphylococcus saprophyticus subsp. saprophyticus; experiment: MIC, 20-strain panel
Outline: as §1

Streptococcus pyogenes = experiment: MIC, 20-strain panel
Outline: as §1

[2] = system: Staphylococcus aureus subsp. aureus; experiment: MIC, 20-strain panel; settings: read-out: MIC
Outline: as §1

[3] = system: Staphylococcus epidermidis; experiment: MIC, 20-strain panel
Outline: as §1

[4] = system: Klebsiella pneumoniae subsp. pneumoniae; experiment: MIC, 20-strain panel
Outline: as §1

[5] = system: Salmonella enterica subsp. enterica typhimurium; experiment: MIC, 20-strain panel
Outline: as §1

[6] = H: Staphylococcus aureus subsp. aureus
[7] = E: Klebsiella pneumoniae subsp. pneumoniae
[8] = F: Salmonella enterica subsp. enterica Typhimurium
[9] = Staphylococcus aureus subsp. aureus
[10] = Klebsiella pneumoniae subsp. pneumoniae
[11] = Salmonella enterica subsp. enterica Typhimurium

Structure (SMILES)	MIC (E. coli BW25113; BW25113, B: E. coli BW25113) [µg/mL]	MIC (Edwardsiella tarda; D: Edwardsiella tarda) [µg/mL]	MIC (E. coli JW5503 (deltolC); C: E. coli JW5503 (deltolC)) [µg/mL]	MIC (Shigella flexneri; G: Shigella flexneri) [µg/mL]	MIC (Streptococcus agalactiae) [µg/mL]	MIC (E. coli MG1655; MG1655, A: E. coli MG1655) [µg/mL]	MIC [1] [µg/mL]	MIC (Streptococcus pyogenes) [µg/mL]	MIC [2, 6] [µg/mL]	MIC [3] [µg/mL]	MIC [4, 7] [µg/mL]	MIC [5, 8] [µg/mL]	MIC (E. coli BW25113; BW25113, E. coli BW25113) [µg/mL]	MIC (Edwardsiella tarda) [µg/mL]	MIC (E. coli JW5503 (deltolC); E. coli JW5503 (deltolC)) [µg/mL]	MIC (Shigella flexneri) [µg/mL]	MIC (E. coli MG1655; MG1655, E. coli MG1655) [µg/mL]	MIC [2, 9] [µg/mL]	MIC [4, 10] [µg/mL]	MIC [5, 11] [µg/mL]
O=S(=O)(N[C@@H]1CCN(Cc2ccc(-c3cccs3)cc2)C1)c1cccc(C(F)(F)F)c1 [Compound 32]	> 8	> 8	1 (≈ 2.14 µM)	> 8	> 8	> 8	> 8	8 (≈ 17.1 µM)	> 8	8 (≈ 17.1 µM)	> 8	8 (≈ 17.1 µM)								
O=S(=O)(N[C@@H]1CCN(Cc2ccc(OC(F)(F)F)cc2)C1)c1cccc(OC(F)(F)F)c1 [Compound 51]	> 8	> 8	4 (≈ 8.26 µM)	> 8	> 8	> 8	> 8	> 8	> 8	> 8	> 8	> 8								
Cc1ccc(S(C)(=O)=O)cc1S(=O)(=O)N[C@@H]1CCN(Cc2ccc(-c3ccccc3)cc2)C1 [Compound 73]	> 8	> 8	4 (≈ 8.25 µM)	> 8	> 8	> 8	> 8	> 8	> 8	> 8	> 8	> 8								
O=S(=O)(N[C@@H]1CCN(Cc2ccc(OC3CC3)cc2)C1)c1cc(C(F)(F)F)ccc1Cl [Compound 90]	~8 (≈ 16.8 µM)	> 8	< 0.0625	~8 (≈ 16.8 µM)	> 8	> 8	> 8	> 8	> 8	> 8	> 8	4 (≈ 8.42 µM)								
O=S(=O)(N[C@@H]1CCN(Cc2ccc(OC(F)F)cc2)C1)c1cccc(C(F)(F)F)c1 [Compound 87]	> 8	> 8	2 (≈ 4.44 µM)	> 8	> 8	> 8	> 8	> 8	> 8	> 8	> 8	> 8								
N#Cc1cccc(S(=O)(=O)N[C@@H]2CCN(Cc3ccc(OCC(F)F)cc3)C2)c1 [Compound 8]	> 8	> 8	2 (≈ 4.75 µM)	> 8	> 8	> 8	> 8	> 8	> 8	> 8	> 8	8 (≈ 19 µM)								
N#Cc1cccc(S(=O)(=O)N[C@@H]2CCN(Cc3ccc(OC(F)(F)F)cc3)C2)c1 [Compound 17]	> 8	> 8	8 (≈ 18.8 µM)	> 8	> 8	> 8	> 8	> 8	> 8	> 8	> 8	> 8								
CN1C(=O)Cc2cc(S(=O)(=O)N[C@@H]3CCN(Cc4ccc(-c5ccccc5)cc4)C3)ccc21 [Compound 180]					> 8		> 8	> 8		> 8			> 8	> 8	> 8	> 8	> 8	> 8	> 8	> 8
O=S(=O)(N[C@@H]1CCN(Cc2ccc(OC3CC3)cc2)C1)c1ccc(Cl)cn1 [Compound 132]					> 8		> 8	> 8		> 8			> 8	> 8	> 8	> 8	> 8	> 8	> 8	> 8
O=C1CCCN1c1ccc(CN2CC[C@@H](NS(=O)(=O)c3cccc(OC(F)(F)F)c3)C2)cc1 [Compound 100]	> 8	> 8	2 (≈ 4.14 µM)	> 8	> 8	> 8	> 8	> 8	> 8	> 8	> 8	> 8								
O=S(=O)(N[C@@H]1CCN(Cc2nc(-c3ccccc3)cs2)C1)c1cccc(OC(F)(F)F)c1 [Compound 107]	> 8	> 8	> 8	> 8	> 8	> 8	> 8	> 8	> 8	> 8	> 8	> 8								
N#Cc1cc(S(=O)(=O)N[C@@H]2CCN(Cc3ccc(OC4CC4)cc3)C2)ccc1F [Compound 166]					> 8		> 8	> 8		> 8			> 8	> 8	2 (≈ 4.81 µM)	> 8	> 8	> 8	> 8	~8 (≈ 19.3 µM)
O=S(=O)(N[C@@H]1CCN(Cc2ccc(-c3nccs3)cc2)C1)c1cccc(C(F)(F)F)c1 [Compound 57]	> 8	> 8	8 (≈ 17.1 µM)	> 8	> 8	> 8	> 8	> 8	> 8	> 8	> 8	> 8								
COc1ccc(-c2ccc(CN3CC[C@@H](NS(=O)(=O)c4cccc(OC(F)(F)F)c4)C3)cc2)cc1 [Compound 74]	> 8	> 8	8 (≈ 15.8 µM)	> 8	> 8	> 8	> 8	> 8	> 8	> 8	> 8	> 8								
O=S(=O)(N[C@@H]1CCN(Cc2ccc(OC3CCCC3)cc2)C1)c1cccc(OC(F)(F)F)c1 [Compound 45]	> 8	> 8	2 (≈ 4.13 µM)	> 8	> 8	> 8	> 8	> 8	> 8	8 (≈ 16.5 µM)	> 8	> 8								
COc1ccc(-c2ccc(CN3CC[C@@H](NS(=O)(=O)c4cccc(C(F)(F)F)c4)C3)cc2)cc1 [Compound 61]	> 8	> 8	4 (≈ 8.15 µM)	> 8	> 8	> 8	> 8	~8 (≈ 16.3 µM)	> 8	~8 (≈ 16.3 µM)	> 8	> 8								
CS(=O)(=O)c1ccc(Cl)c(S(=O)(=O)N[C@@H]2CCN(Cc3ccc(OC4CC4)cc3)C2)c1 [Compound 151]					> 8		> 8	> 8		> 8			> 8	> 8	~8 (≈ 16.5 µM)	> 8	> 8	> 8	> 8	> 8
O=S(=O)(N[C@@H]1CCN(Cc2ccc(-c3ccccc3)cc2)C1)c1cnccc1Cl [Compound 122]	> 8	> 8	4 (≈ 9.35 µM)	> 8	> 8	> 8	> 8	> 8	> 8	~8 (≈ 18.7 µM)	> 8	> 8								
N#Cc1cccc(S(=O)(=O)N[C@@H]2CCN(Cc3ccc(-n4cccn4)cc3)C2)c1 [Compound 145]					> 8		> 8	> 8		> 8			> 8	> 8	8 (≈ 19.6 µM)	> 8	> 8	> 8	> 8	> 8
O=S(=O)(N[C@@H]1CCN(Cc2ccc(-c3ccccc3)cc2)C1)c1cccc2cccnc12 [Compound 105]	> 8	> 8	0.125 (≈ 0.282 µM)	> 8	> 8	> 8	> 8	> 8	> 8	> 8	> 8	8 (≈ 18 µM)								
O=S(=O)(N[C@@H]1CCN(Cc2ccc(-n3ccnn3)cc2)C1)c1cccc(OC(F)(F)F)c1 [Compound 33]	> 8	> 8	> 8	> 8	> 8	> 8	> 8	> 8	> 8	> 8	> 8	> 8								
O=S(=O)(N[C@@H]1CCN(Cc2ccc(-c3ccccc3)cc2)C1)c1cccc(C(F)(F)F)c1 [Compound 27]	> 8	> 8	0.5 (≈ 1.09 µM)	> 8	> 8	> 8	> 8	8 (≈ 17.4 µM)	> 8	8 (≈ 17.4 µM)	> 8	4 (≈ 8.69 µM)								
